Measured values as given in ChEMBL document CHEMBL1909046, “DrugMatrix in vitro pharmacology data”.

Legend:
[1] = DRUGMATRIX: Atrial Natriuretic Factor (ANF) radioligand binding (ligand: [125I] ANF (rat)); type: cell membranes, Cavia porcellus, Dunkin-Hartley, Adrenal gland, Membrane; conditions: Not Active = under 50% inhibition at 10 µM
[2] = molecular target: T1, Neuropeptide Y receptor type 1 (Homo sapiens, UniProt P25929); type: cell membranes, Membrane; conditions: sk-n-mc; note: in other assays of this panel Not Active means under 50% inhibition at 10 µM
T1 sequence (P25929 whole entry): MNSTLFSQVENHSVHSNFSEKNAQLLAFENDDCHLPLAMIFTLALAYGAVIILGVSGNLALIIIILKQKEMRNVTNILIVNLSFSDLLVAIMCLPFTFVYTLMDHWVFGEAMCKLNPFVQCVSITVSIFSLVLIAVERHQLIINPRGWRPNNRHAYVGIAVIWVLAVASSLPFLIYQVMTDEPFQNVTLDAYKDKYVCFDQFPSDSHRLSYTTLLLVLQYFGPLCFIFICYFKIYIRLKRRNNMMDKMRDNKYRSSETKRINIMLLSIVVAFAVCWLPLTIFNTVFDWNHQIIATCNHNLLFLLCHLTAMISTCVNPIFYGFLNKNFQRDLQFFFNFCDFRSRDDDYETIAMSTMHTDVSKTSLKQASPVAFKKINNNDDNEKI

Cytochrome P450 3A4 = Cytochrome P450 3A4 (Homo sapiens, UniProt P08684); conditions: bti-tn-5b1-4; note: in other assays of this panel Not Active means under 50% inhibition at 10 µM
Chain of Cytochrome P450 3A4 (P08684 whole entry): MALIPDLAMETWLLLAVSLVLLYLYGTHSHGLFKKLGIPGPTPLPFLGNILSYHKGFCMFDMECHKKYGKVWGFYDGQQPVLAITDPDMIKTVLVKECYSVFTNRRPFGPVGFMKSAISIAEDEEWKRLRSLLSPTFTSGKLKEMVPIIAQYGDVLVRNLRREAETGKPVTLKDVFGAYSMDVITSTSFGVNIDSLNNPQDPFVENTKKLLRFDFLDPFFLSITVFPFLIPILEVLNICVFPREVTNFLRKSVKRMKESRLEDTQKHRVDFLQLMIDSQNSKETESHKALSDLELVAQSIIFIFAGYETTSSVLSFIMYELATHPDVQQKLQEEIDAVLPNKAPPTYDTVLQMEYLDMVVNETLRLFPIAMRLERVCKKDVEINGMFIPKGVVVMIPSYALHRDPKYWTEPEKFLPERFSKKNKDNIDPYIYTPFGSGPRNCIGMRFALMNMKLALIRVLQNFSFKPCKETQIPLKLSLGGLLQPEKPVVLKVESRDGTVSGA

[3] = molecular target: Sodium-dependent dopamine transporter (Homo sapiens, UniProt Q01959); test: DRUGMATRIX: Dopamine Transporter radioligand binding (ligand: [125I] RTI-55); type: cell membranes, CHO-K1, Membrane; conditions: cho-k1; Not Active = under 50% inhibition at 10 µM
Chain of Sodium-dependent dopamine transporter (Q01959 whole entry): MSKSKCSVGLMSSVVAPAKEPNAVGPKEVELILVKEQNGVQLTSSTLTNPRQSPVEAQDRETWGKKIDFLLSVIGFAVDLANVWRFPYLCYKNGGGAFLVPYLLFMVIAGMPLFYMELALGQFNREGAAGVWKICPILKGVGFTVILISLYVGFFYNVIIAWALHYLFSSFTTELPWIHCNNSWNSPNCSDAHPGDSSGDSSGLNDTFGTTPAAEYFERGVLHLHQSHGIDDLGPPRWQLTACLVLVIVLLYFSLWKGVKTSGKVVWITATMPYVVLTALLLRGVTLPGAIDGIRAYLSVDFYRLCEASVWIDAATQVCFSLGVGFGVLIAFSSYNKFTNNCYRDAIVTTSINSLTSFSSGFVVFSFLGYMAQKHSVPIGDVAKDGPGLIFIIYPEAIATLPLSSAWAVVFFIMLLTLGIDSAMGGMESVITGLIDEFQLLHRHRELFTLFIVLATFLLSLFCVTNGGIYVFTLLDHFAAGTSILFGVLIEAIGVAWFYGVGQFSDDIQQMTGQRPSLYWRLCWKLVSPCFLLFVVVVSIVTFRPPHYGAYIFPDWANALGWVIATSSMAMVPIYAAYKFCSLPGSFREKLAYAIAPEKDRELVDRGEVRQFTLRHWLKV

[4] = molecular target: Sigma non-opioid intracellular receptor 1 (Homo sapiens, UniProt Q99720); test: DRUGMATRIX: Sigma1 radioligand binding (ligand: [3H] Haloperidol); type: cell membranes, Jurkat, Membrane; conditions: jurkat; Not Active = under 50% inhibition at 10 µM
Chain of Sigma non-opioid intracellular receptor 1 (Q99720 whole entry): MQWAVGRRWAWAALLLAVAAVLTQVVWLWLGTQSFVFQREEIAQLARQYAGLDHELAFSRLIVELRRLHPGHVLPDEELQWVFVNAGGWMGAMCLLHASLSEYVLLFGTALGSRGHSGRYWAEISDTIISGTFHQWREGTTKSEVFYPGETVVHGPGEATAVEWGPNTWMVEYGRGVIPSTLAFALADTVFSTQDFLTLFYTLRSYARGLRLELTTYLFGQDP

Estrogen receptor = molecular target: T2, Estrogen receptor (Homo sapiens, UniProt P03372); conditions: sf9; note: in other assays of this panel Not Active means under 50% inhibition at 10 µM
T2 sequence (P03372 whole entry): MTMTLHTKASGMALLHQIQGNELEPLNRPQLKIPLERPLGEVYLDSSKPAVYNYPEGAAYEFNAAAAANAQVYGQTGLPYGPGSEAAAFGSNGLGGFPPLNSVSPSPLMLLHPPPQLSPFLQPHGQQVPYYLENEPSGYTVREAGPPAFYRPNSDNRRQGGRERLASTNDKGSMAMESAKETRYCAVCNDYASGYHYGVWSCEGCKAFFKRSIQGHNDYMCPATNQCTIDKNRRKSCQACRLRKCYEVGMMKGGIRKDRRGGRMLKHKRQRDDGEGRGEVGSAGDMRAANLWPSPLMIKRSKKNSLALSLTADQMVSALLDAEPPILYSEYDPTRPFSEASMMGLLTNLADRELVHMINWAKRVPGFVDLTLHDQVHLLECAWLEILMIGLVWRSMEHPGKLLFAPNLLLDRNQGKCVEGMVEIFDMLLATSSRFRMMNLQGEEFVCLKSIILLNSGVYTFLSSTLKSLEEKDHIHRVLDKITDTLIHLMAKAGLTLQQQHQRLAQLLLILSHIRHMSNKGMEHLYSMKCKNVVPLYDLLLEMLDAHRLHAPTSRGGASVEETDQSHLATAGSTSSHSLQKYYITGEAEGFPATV

Melanocortin receptor 5 = Melanocortin receptor 5 (Homo sapiens, UniProt P33032); type: cell membranes, HEK293, Membrane; conditions: hek293; note: in other assays of this panel Not Active means under 50% inhibition at 10 µM
Chain of Melanocortin receptor 5 (P33032 whole entry): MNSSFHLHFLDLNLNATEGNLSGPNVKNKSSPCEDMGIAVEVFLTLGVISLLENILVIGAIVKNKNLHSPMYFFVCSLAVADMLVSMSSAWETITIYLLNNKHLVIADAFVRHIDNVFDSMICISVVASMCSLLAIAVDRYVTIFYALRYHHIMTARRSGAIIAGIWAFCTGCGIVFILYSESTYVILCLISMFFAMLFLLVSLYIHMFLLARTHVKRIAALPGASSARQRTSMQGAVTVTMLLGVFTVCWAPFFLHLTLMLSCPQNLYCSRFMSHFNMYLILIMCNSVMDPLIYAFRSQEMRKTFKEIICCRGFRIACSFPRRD

Compound | IC50 [1] | Ki [1] | IC50 [2] | IC50 (Cytochrome P450 3A4) | Ki (Cytochrome P450 3A4) | IC50 [3] | IC50 [4] | IC50 (Estrogen receptor) | IC50 (Melanocortin receptor 5) | Ki [2] | Ki [3] | Ki [4] | Ki (Estrogen receptor) | Ki (Melanocortin receptor 5) | IC50 (Melanocortin receptor 5; read-out: IC50) [µM] | Ki (Melanocortin receptor 5; read-out: Ki) [µM]
CC(C)(C)NCC(O)COc1cccc2c1CC(O)C(O)C2 (stereo not given) [NADOLOL] | Not Active | Not Active | Not Active | Not Active | Not Active | Not Active | Not Active | Not Active | Not Active |  |  |  |  |  |  | 
C[C@]12CC[C@H]3[C@@H](CCC4=CC(=O)CC[C@@H]43)[C@@H]1CC[C@@H]2O [NANDROLONE] | Not Active | Not Active | Not Active | Not Active | Not Active | Not Active | Not Active | Not Active | Not Active |  |  |  |  |  |  | 
CN(C)C(=O)Oc1cccc([N+](C)(C)C)c1.[Br-] [NEOSTIGMINE BROMIDE] | Not Active | Not Active | Not Active | Not Active | Not Active | Not Active | Not Active | Not Active | Not Active |  |  |  |  |  |  | 
NC(=O)c1cccnc1 [NIACINAMIDE] | Not Active | Not Active | Not Active | Not Active | Not Active | Not Active | Not Active | Not Active | Not Active |  |  |  |  |  |  | 
CN1C(=O)CN=C(c2ccccc2)c2cc([N+](=O)[O-])ccc21 [NIMETAZEPAM] | Not Active | Not Active | Not Active | Not Active | Not Active | Not Active | Not Active | Not Active | Not Active |  |  |  |  |  |  | 
C[C@@H]1O[C@@H](O[C@H]2C[C@@H](O)[C@]3(CO)[C@H]4[C@H](O)C[C@]5(C)[C@@H](C6=CC(=O)OC6)CC[C@]5(O)[C@@H]4CC[C@]3(O)C2)[C@H](O)[C@H](O)[C@H]1O [OUABAIN] | Not Active | Not Active | Not Active | Not Active | Not Active | Not Active | Not Active | Not Active | Not Active |  |  |  |  |  |  | 
COc1ccnc(C[S+]([O-])c2nc3ccc(OC(F)F)cc3[nH]2)c1OC (stereo not given) [PANTOPRAZOLE] | Not Active | Not Active | Not Active | Not Active | Not Active | Not Active | Not Active | Not Active | Not Active |  |  |  |  |  |  | 
CCc1ccc(CCOc2ccc(CC3SC(=O)NC3=O)cc2)nc1 (stereo not given) [PIOGLITAZONE] | Not Active | Not Active | Not Active | Not Active | Not Active | Not Active | Not Active | Not Active | Not Active |  |  |  |  |  |  | 
CCCNC(C)C(=O)Nc1ccccc1C (stereo not given) [PRILOCAINE] | Not Active | Not Active | Not Active | Not Active | Not Active | Not Active | Not Active | Not Active | Not Active |  |  |  |  |  |  | 
CCN(CC)CCCC(C)Nc1c2ccc(Cl)cc2nc2ccc(OC)cc12 (stereo not given) [QUINACRINE] | Not Active | Not Active | Not Active | Not Active | Not Active | Not Active | Not Active | Not Active | Not Active |  |  |  |  |  |  | 
C[C@]12C=CC(=O)C=C1CC[C@H]1[C@@H]3C[C@@H](O)[C@](O)(C(=O)CO)[C@@]3(C)C[C@H](O)[C@@]12F [TRIAMCINOLONE] | Not Active | Not Active | Not Active | Not Active | Not Active | Not Active | Not Active | Not Active | Not Active |  |  |  |  |  |  | 
CC[C@]1(O)C[C@@H]2CN(CCc3c([nH]c4ccccc34)[C@@](C(=O)OC)(c3cc4c(cc3OC)N(C)[C@H]3[C@@](O)(C(N)=O)[C@H](O)[C@]5(CC)C=CCN6CC[C@]43[C@@H]65)C2)C1 [VINDESINE] | Not Active | Not Active | Not Active | Not Active | Not Active | Not Active | Not Active | Not Active | Not Active |  |  |  |  |  |  | 
CCN(C(C)=O)c1cccc(-c2ccnc3c(C#N)cnn23)c1 [ZALEPLON] | Not Active | Not Active | Not Active | Not Active | Not Active | Not Active | Not Active | Not Active | Not Active |  |  |  |  |  |  | 
COBALTOUS CHLORIDE | Not Active | Not Active | Not Active | Not Active | Not Active | Not Active | Not Active | Not Active | Not Active | Not Active | Not Active | Not Active | Not Active | Not Active |  | 
COLISTIN | Not Active | Not Active | Not Active | Not Active | Not Active | Not Active | Not Active | Not Active |  | Not Active | Not Active | Not Active | Not Active |  | 0.266 | 0.249
